From the supplement of paper PMC13380429

Key:
Settings in all cases: 72 h
Caco-2 [1] = experiment: cell viability relative to DMSO; higher = less toxic
Calu-3 [2] = experiment: as above
Vero E6 [3] = experiment: as above
U2OS [4] = experiment: as above
HepG2 [5] = experiment: as above
Caco-2 [6] = experiment: drug sensitivity score (DSS) for viability; higher = more toxic; extreme values may be limits of the assay
Calu-3 [7] = experiment: as above
Vero E6 [8] = experiment: as above
U2OS [9] = experiment: as above
HepG2 [10] = experiment: as above
Vero E6 [11] = experiment: relative viability EC50 (midpoint between 100% and the lowest measured viability); higher = less toxic
HepG2 [12] = experiment: as above
Caco-2 [13] = experiment: as above
Calu-3 [14] = experiment: as above
U2OS [15] = experiment: as above

SMILES | cell viability (Caco-2 [1]; 1 nM) [%] | cell viability (Caco-2 [1]; 10 nM) [%] | cell viability (Caco-2 [1]; 100 nM) [%] | cell viability (Caco-2 [1]; 1000 nM) [%] | cell viability (Caco-2 [1]; 10000 nM) [%] | cell viability (Calu-3 [2]; 1 nM) [%] | cell viability (Calu-3 [2]; 10 nM) [%] | cell viability (Calu-3 [2]; 100 nM) [%] | cell viability (Calu-3 [2]; 1000 nM) [%] | cell viability (Calu-3 [2]; 10000 nM) [%] | cell viability (Vero E6 [3]; 1 nM) [%] | cell viability (Vero E6 [3]; 10 nM) [%] | cell viability (Vero E6 [3]; 100 nM) [%] | cell viability (Vero E6 [3]; 1000 nM) [%] | cell viability (Vero E6 [3]; 10000 nM) [%] | cell viability (U2OS [4]; 1 nM) [%] | cell viability (U2OS [4]; 10 nM) [%] | cell viability (U2OS [4]; 100 nM) [%] | cell viability (U2OS [4]; 1000 nM) [%] | cell viability (U2OS [4]; 10000 nM) [%] | cell viability (HepG2 [5]; 1 nM) [%] | cell viability (HepG2 [5]; 10 nM) [%] | cell viability (HepG2 [5]; 100 nM) [%] | cell viability (HepG2 [5]; 1000 nM) [%] | cell viability (HepG2 [5]; 10000 nM) [%] | drug sensitivity score (Caco-2 [6]) | drug sensitivity score (Calu-3 [7]) | drug sensitivity score (Vero E6 [8]) | drug sensitivity score (U2OS [9]) | drug sensitivity score (HepG2 [10]) | relative viability EC50 (Vero E6 [11]) [µM] | relative viability EC50 (HepG2 [12]) [nM] | relative viability EC50 (Caco-2 [13]) [µM] | relative viability EC50 (Calu-3 [14]) [µM] | relative viability EC50 (U2OS [15]) [µM]
CC(C)(C)C[C@@H]1N[C@@H](C(=O)N[C@H]2CC[C@H](O)CC2)[C@H](c2cccc(Cl)c2F)[C@]12C(=O)Nc1cc(Cl)ccc12 | 97.7 | 104 | 91 | 94.3 | 73.2 | 90.6 | 92.3 | 95.5 | 110 | 73.1 | 100 | 102 | 97.8 | 63.4 | 49.3 | 99.6 | 109 | 96.3 | 80.7 | 58.2 | 108 | 95.8 | 95.5 | 28.7 | 24.2 | 1.7 | 0.7 | 7.2 | 4.2 | 13.8 | 0.583 | 315 | – | – | –
Cc1ccc(C(=O)Nc2ccc(Oc3cc4cnn(C)c4cc3-c3cn[nH]c3)c(F)c2)c(=O)n1-c1ccc(F)cc1 | 98 | 94.9 | 102 | 99.3 | 53.8 | 92 | 91.9 | 101 | 70.7 | 65.3 | 103 | 99.6 | 96.7 | 92.1 | 68.1 | 101 | 95.5 | 98.8 | 96.9 | 69.9 | 102 | 110 | 97.4 | 75.5 | 15.6 | 2.5 | 5.1 | 2.6 | 1.8 | 8.3 | – | 1430 | – | – | –
O=C(NCC1(N2CCN(c3ccccc3)CC2)CCOCC1)c1cccnc1Sc1ccccc1 | 99.8 | 97.4 | 103 | 98.1 | 94.1 | 99.4 | 106 | 104 | 99.8 | 95 | – | – | – | – | – | 96.1 | 96.5 | 101 | 98.9 | 102 | 107 | 101 | 103 | 97.5 | 91.4 | 0 | 0 | – | 0 | 0 | – | > 10000 | > 10 | > 10 | > 10
CC(=O)N1CCN(c2ccc(OC[C@@H]3CO[C@@](Cn4ccnc4)(c4ccc(Cl)cc4Cl)O3)cc2)CC1 (racemic) [ketoconazole] | 91.9 | 110 | 95.1 | 104 | 82.6 | 97.1 | 90.6 | 96.3 | 96.3 | 96.9 | – | – | – | – | – | 98.3 | 101 | 99.3 | 103 | 95.3 | 112 | 96.1 | 111 | 102 | 83.3 | 0.3 | 0 | – | 0 | 0.3 | – | > 10000 | > 10 | > 10 | > 10
N=C(Nc1ccc(I)cc1)NC1C2CC3CC(C2)CC1C3 (stereo not given) [IPAG] | 103 | 98.4 | 97.9 | 88.3 | 16.2 | 106 | 103 | 98.2 | 101 | 77.2 | 95.7 | 102 | 94.5 | 94.2 | 63.8 | 103 | 102 | 105 | 96.4 | 93.8 | 97.7 | 96 | 87.6 | 84.8 | 17 | 6.6 | 0.7 | 2.7 | 0 | 7.1 | – | 1810 | 2.05 | > 10 | > 10
CCCCCCCCCCCCCCCC(=O)OC[C@H](O)[C@H]1OC(=O)C(O)=C1O [L-ascorbyl-6-palmitate] | 95.2 | 100 | 96.1 | 99.7 | 95 | 98.9 | 104 | 94.5 | 108 | 113 | – | – | – | – | – | 100 | 103 | 97.5 | 102 | 97.9 | 101 | 93.2 | 92.6 | 94.4 | 97.7 | 0 | 0 | – | 0 | 0 | – | > 10000 | > 10 | > 10 | > 10
CC(C)CNc1nc(-c2cccc3ncccc23)cn2c(-c3ccc(C(=O)NC4CC4)cc3)cnc12 [Mps-BAY-2a] | 93.1 | 82.9 | 93.1 | 79.4 | 79.9 | 107 | 98.5 | 104 | 103 | 93 | 95.7 | 94.5 | 90.1 | 71.1 | 62.2 | 101 | 97.6 | 103 | 99.1 | 70.6 | 87.9 | 100 | 86 | 57.4 | 47.6 | 3.8 | 0 | 5.9 | 1.4 | 9.3 | – | 255 | > 10 | > 10 | –
COc1cc2ncnc(Nc3ccc(Oc4ccccc4)cc3)c2cc1OC [SRC-kinase-inhibitor-I] | 96.8 | 106 | 98 | 94.7 | 71.1 | 88.9 | 102 | 94 | 89.9 | 33.4 | 103 | 97.2 | 109 | 93.5 | 66.7 | 99.7 | 105 | 99.6 | 103 | 80.8 | 104 | 112 | 104 | 103 | 86.8 | 2.1 | 5.4 | 2.6 | 0.4 | 0.1 | – | > 10000 | – | 1.98 | > 10
CCn1c(=O)n([C@H]2CCCN(c3nccc(-c4cc5ccccc5o4)n3)C2)c2ccccc21 [TC-F-2] | 95.6 | 91.4 | 85.1 | 92 | 84.9 | 98.8 | 99.6 | 114 | 104 | 98.4 | 103 | 99.5 | 96.1 | 96.6 | 102 | 95.1 | 101 | 96.4 | 98.8 | 96.5 | 96 | 103 | 99.2 | 90.7 | 56.9 | 1.4 | 0 | 0 | 0 | 3.7 | > 10 | – | > 10 | > 10 | > 10
COc1cc(OC)c2c(=O)[nH]c(-c3cc(C)c(OCCO)c(C)c3)nc2c1 [apabetalone] | 109 | 96.9 | 102 | 101 | 87.6 | 98.5 | 90.2 | 90.2 | 99.4 | 102 | 99.8 | 98.4 | 105 | 93 | 63.8 | 102 | 102 | 104 | 96.8 | 89.2 | 101 | 99.9 | 91.3 | 93.2 | 79.9 | 0 | 0 | 2.9 | 0 | 0.9 | – | > 10000 | > 10 | > 10 | > 10
NS(=O)(=O)c1cc(-c2nnn[nH]2)c(NCc2cccs2)cc1Cl [azosemide] | 99.4 | 111 | 86.5 | 92.4 | 92.1 | – | – | – | – | – | 103 | 108 | 104 | 106 | 97.1 | – | – | – | – | – | 94.5 | 103 | 103 | 95.7 | 89.6 | 1.6 | – | 0 | – | 0 | > 10 | > 10000 | > 10 | – | –
C[C@@]12CCc3occc3[C@H]1CC[C@@]13C[C@@H](CC[C@H]12)[C@@](O)(CO)C3 [cafestol] | 119 | 100 | 104 | 103 | 79.6 | 104 | 104 | 107 | 112 | 98.2 | 98.7 | 97.7 | 102 | 98 | 104 | 101 | 103 | 94.2 | 98.2 | 94.4 | 83.8 | 96.4 | 78.4 | 104 | 69.3 | 0.5 | 0 | 0 | 0 | 1.1 | > 10 | – | > 10 | > 10 | > 10
O=C(O)CCCCN(CCc1ccccc1OCc1ccc(CCc2ccccc2)cc1)Cc1ccc(C(=O)O)cc1 [cinaciguat] | 110 | 110 | 104 | 86 | 104 | – | – | – | – | – | – | – | – | – | – | – | – | – | – | – | 106 | 110 | 98.9 | 109 | 105 | 0 | – | – | – | 0 | – | > 10000 | > 10 | – | –
O=C(c1ccc(OCCCc2c[nH]cn2)cc1)C1CC1 [ciproxifan] | 101 | 97.1 | 91.8 | 94.2 | 88.4 | 93.4 | 101 | 99.9 | 88.2 | 93.1 | 101 | 102 | 101 | 101 | 94.2 | 96.1 | 105 | 96.8 | 95.8 | 97.5 | 106 | 107 | 99.8 | 74.3 | 88.6 | 0 | 0.5 | 0 | 0 | 4.1 | > 10 | – | > 10 | > 10 | > 10
Nc1ccn([C@@H]2O[C@H](CO)[C@@H](O)[C@@H]2O)c(=O)n1 [cytarabine] | 106 | 97 | 90.7 | 85.9 | 80.6 | 99.6 | 93.8 | 91.9 | 88.6 | 70.9 | 95.8 | 96.5 | 93.5 | 95.1 | 62.1 | 103 | 94.3 | 96.3 | 96.9 | 72.8 | 95.2 | 100 | 66.4 | 42.1 | 38.7 | 2.1 | 2.4 | 2.7 | 1.6 | 15.2 | – | 90 | > 10 | – | –
